Each cell line was assayed with N[C@@H]1CCCN(c2c(/C=C3\SC(=O)NC3=O)cccc2-c2ccccc2)C1 [AZD1208] + N=C(N)NC(=N)NCCc1ccccc1 [Phenformin] (partner 250 µM) (assay: relative viability (nuclei count vs DMSO), 5 days (fraction); higher = more cells survive). Conditions: first compound 0.08 µM.
Procedure, shortened: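 Values are medians from duplicate plates. Each reflects relative viability, defined as the nuclei count of treated wells over that of vehicle wells. Lung cancer cell lines in 1536-well plates were pin-tool dosed one day after seeding with one drug alone or with a fixed anchor-drug dose plus five library-drug doses (not always all listed) in √10 steps, then fixed, stained and imaged at 4× after 5 days.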
With PC-14 the relative viability was 0.778. Work on LCLC-103H yielded a relative viability of 0.317. NCI-H596 gave a relative viability of 0.674. NCI-H2228 was tested, and the relative viability was 0.364. For EMC-BAC-2, the relative viability was 0.535. With NCI-H2087 the relative viability was 0.46. Work on HCC-366 yielded a relative viability of 0.588. Cell Line NCI-H1666 has a relative viability of 0.499. With NCI-H647 the relative viability was 0.459. LK-2 gave a relative viability of 0.402. Cell Line NCI-H2126 has a relative viability of 0.506. For NCI-H2342, the relative viability was 0.563. Work on SK-MES-1 yielded a relative viability of 0.668. In the case of H3255, the relative viability is reported as 0.37. In the case of COR-L23, the relative viability is reported as 0.491. With COR-L 105 the relative viability was 0.476. Work on LOU-NH91 yielded a relative viability of 0.715. In the case of ChaGo-K-1, the relative viability is reported as 0.54. With NCI-H2170 the relative viability was 0.458. NCI-H3122 was tested, and the relative viability was 0.413. For HOP-62, the relative viability was 0.689. HCC-44 gave a relative viability of 0.219. With A549 the relative viability was 0.157. Work on SW 900 yielded a relative viability of 0.624. Cell Line LU99A has a relative viability of 0.871. Work on BEN yielded a relative viability of 0.269. HARA showed a relative viability of 0.454. HCC-78 gave a relative viability of 0.766. NCI-H441 gave a relative viability of 0.782. LCLC-97TM1 showed a relative viability of 0.358. With NCI-H2023 the relative viability was 0.394. Work on NCI-H1563 yielded a relative viability of 0.64.

Same assay, conditions: first compound 0.253 µM
In the case of NCI-H522, the relative viability is reported as 0.678. For NCI-H1623, the relative viability was 0.642. NCI-H838 showed a relative viability of 0.704. In the case of NCI-H1650, the relative viability is reported as 0.424. NCI-H2009 gave a relative viability of 0.489. Work on NCI-H1993 yielded a relative viability of 0.468. PC-14 gave a relative viability of 0.616. Cell Line LCLC-103H has a relative viability of 0.246. NCI-H596 gave a relative viability of 1.01. With NCI-H2228 the relative viability was 0.316. Cell Line EMC-BAC-2 has a relative viability of 0.63. For NCI-H2087, the relative viability was 0.554. In the case of HCC-366, the relative viability is reported as 0.668. With NCI-H1666 the relative viability was 0.583. Work on NCI-H647 yielded a relative viability of 0.837. Cell Line LK-2 has a relative viability of 0.218. NCI-H2126 showed a relative viability of 0.507. Work on NCI-H2342 yielded a relative viability of 0.585. In the case of SK-MES-1, the relative viability is reported as 0.672. Work on H3255 yielded a relative viability of 0.353. COR-L23 showed a relative viability of 0.469. Work on COR-L 105 yielded a relative viability of 0.567. LOU-NH91 was tested, and the relative viability was 0.691. Cell Line ChaGo-K-1 has a relative viability of 0.569. In the case of NCI-H2170, the relative viability is reported as 0.385. For NCI-H3122, the relative viability was 0.4. With HOP-62 the relative viability was 0.745. Cell Line HCC-44 has a relative viability of 0.202. In the case of A549, the relative viability is reported as 0.172. SW 900 showed a relative viability of 0.852. In the case of LU99A, the relative viability is reported as 0.921. BEN showed a relative viability of 0.267. For HARA, the relative viability was 0.498. For HCC-78, the relative viability was 1.03. Cell Line NCI-H441 has a relative viability of 0.66. LCLC-97TM1 was tested, and the relative viability was 0.498. Cell Line NCI-H2023 has a relative viability of 0.386. NCI-H1563 was tested, and the relative viability was 0.644.

Same assay, conditions: first compound 0.8 µM
Cell Line NCI-H522 has a relative viability of 0.569. For NCI-H1623, the relative viability was 0.593. For NCI-H838, the relative viability was 0.425. NCI-H1650 showed a relative viability of 0.414. Work on NCI-H2009 yielded a relative viability of 0.491. Cell Line NCI-H1993 has a relative viability of 0.522. Work on PC-14 yielded a relative viability of 0.525. For LCLC-103H, the relative viability was 0.323. Work on NCI-H596 yielded a relative viability of 0.689. NCI-H2228 showed a relative viability of 0.209. For EMC-BAC-2, the relative viability was 0.497. Work on NCI-H2087 yielded a relative viability of 0.41. HCC-366 showed a relative viability of 0.538. NCI-H1666 was tested, and the relative viability was 0.54. In the case of NCI-H647, the relative viability is reported as 0.344. In the case of LK-2, the relative viability is reported as 0.179. NCI-H2126 gave a relative viability of 0.493. NCI-H2342 was tested, and the relative viability was 0.52. SK-MES-1 was tested, and the relative viability was 0.648. For H3255, the relative viability was 0.372. COR-L23 gave a relative viability of 0.417. COR-L 105 showed a relative viability of 0.478. For LOU-NH91, the relative viability was 0.659. In the case of ChaGo-K-1, the relative viability is reported as 0.524. Cell Line NCI-H2170 has a relative viability of 0.444. Cell Line NCI-H3122 has a relative viability of 0.406. Work on HOP-62 yielded a relative viability of 0.664. Work on HCC-44 yielded a relative viability of 0.172. For A549, the relative viability was 0.168. In the case of SW 900, the relative viability is reported as 0.397. LU99A gave a relative viability of 0.965. In the case of BEN, the relative viability is reported as 0.244. In the case of HARA, the relative viability is reported as 0.377. HCC-78 showed a relative viability of 0.692. With NCI-H441 the relative viability was 0.609. With LCLC-97TM1 the relative viability was 0.429. NCI-H2023 was tested, and the relative viability was 0.348. Cell Line NCI-H1563 has a relative viability of 0.709.

Same assay, conditions: first compound 2.53 µM
NCI-H522 gave a relative viability of 0.618. NCI-H1623 gave a relative viability of 0.548. Work on NCI-H838 yielded a relative viability of 0.583. NCI-H1650 was tested, and the relative viability was 0.337. Cell Line NCI-H2009 has a relative viability of 0.489. With NCI-H1993 the relative viability was 0.471. PC-14 showed a relative viability of 0.544. For LCLC-103H, the relative viability was 0.315. Cell Line NCI-H596 has a relative viability of 0.668. Cell Line NCI-H2228 has a relative viability of 0.269. EMC-BAC-2 was tested, and the relative viability was 0.509. In the case of NCI-H2087, the relative viability is reported as 0.481. In the case of HCC-366, the relative viability is reported as 0.655. NCI-H1666 was tested, and the relative viability was 0.601. Work on NCI-H647 yielded a relative viability of 0.344. In the case of LK-2, the relative viability is reported as 0.188. Work on NCI-H2126 yielded a relative viability of 0.545. NCI-H2342 gave a relative viability of 0.569. Cell Line SK-MES-1 has a relative viability of 0.696. H3255 gave a relative viability of 0.401. Work on COR-L23 yielded a relative viability of 0.419. LOU-NH91 was tested, and the relative viability was 0.684. Work on ChaGo-K-1 yielded a relative viability of 0.475. Cell Line NCI-H2170 has a relative viability of 0.438. Work on NCI-H3122 yielded a relative viability of 0.417. In the case of HOP-62, the relative viability is reported as 0.628. HCC-44 showed a relative viability of 0.147. A549 gave a relative viability of 0.132. With SW 900 the relative viability was 0.503. Cell Line LU99A has a relative viability of 0.764. Cell Line BEN has a relative viability of 0.259. HARA showed a relative viability of 0.474. For HCC-78, the relative viability was 0.753. In the case of NCI-H441, the relative viability is reported as 0.641. In the case of LCLC-97TM1, the relative viability is reported as 0.447. Cell Line NCI-H2023 has a relative viability of 0.367. NCI-H1563 gave a relative viability of 0.617.

Same assay, conditions: first compound 8 µM
With NCI-H522 the relative viability was 0.479. Cell Line NCI-H1623 has a relative viability of 0.611. For NCI-H838, the relative viability was 0.485. In the case of NCI-H1650, the relative viability is reported as 0.289. NCI-H2009 showed a relative viability of 0.441. Work on NCI-H1993 yielded a relative viability of 0.488. Work on PC-14 yielded a relative viability of 0.565. LCLC-103H gave a relative viability of 0.28. With NCI-H596 the relative viability was 0.477. With NCI-H2228 the relative viability was 0.216. For EMC-BAC-2, the relative viability was 0.428. Cell Line NCI-H2087 has a relative viability of 0.336. With HCC-366 the relative viability was 0.431.
